Results on two compounds are retold here after EP0986381B1, “USE OF DITERPENES LIKE HYPOESTOXIDES FOR THE MANUFACTURE OF A MEDICAMENT FOR IMMUNOSUPPRESSION, ANTICANCER AND ANTIVIRAL TREATMENT” (Immune Modulation, Inc., priority 1997, dated 1998).

SMILES strings stand for the structures.

One data set deals with HSV-1. In words: In vitro HSV-1 replication assay, Hybriwix Probe Systems. The data set is classed as cell-based, Herpes simplex virus. Particulars: Human alphaherpesvirus 1, 48 h, two days, African green monkey kidney cells. How it is done:
The antiviral activity of the drug was determined using the Hybriwix™ Probe Systems (Herpes Antiviral Susceptibility Test kit: Diagnostic Hybrids, Inc., Athens, OH). Briefly, either HSV-1 or HSV-2 isolates (ATTC, Rockville, MD) were pre-adsorbed at 37°C and 5% CO2 in a humidified incubator for 60 minutes on African green monkey Kidney cells in a 24-well flat-bottom plate. Following pre-adsorption, the viral inoculum was removed and the growth medium containing various concentrations of appropriate drug was placed in appropriate wells. The culture was continued for 48 hours for the amplification of the virus. Quantification of the HSV DNA present in each well was determined by the nucleic acid hybridization method. The cells and/or virus were lysed with DNA wicking agent and the single-stranded DNA was immobilized on a Hybriwix™ filter by a vertical capillary absorption of the wicking agent/DNA solution. The amount of HSV target DNA from each well was determined using radioactive (I^125)-HSV DNA probe containing genetic sequences, which are homologous to HSV-1 or HSV-2 sequences. The amount of radioactivity present on the Hybriwix™ was dependent upon the amount of HSV DNA present after culture, and was determined in a gamma counter (Packard Instrument Co., Meriden, CT).

Data set [1] concerns human cervical epitheloid carcinoma (HeLa) cells. In words: Colorimetric MTT cytotoxicity assay, HeLa. The format is cell-based. Particulars: 72 hours, read-out: IC50 (drug concentration capable of inducing 50% cytotoxicity). The procedure:
(§1) The following materials and methods were employed in the non-limiting Examples set out below. Tumor cells: Human cervical epitheloid carcinoma (HeLa), human renal clear cell carcinoma (CAKI-1), human malignant melanoma (RPMI-7951) and mouse malignant melanoma (B16-F1) were procured from ATCC (Rockville, MD) and maintained in vitro with MEM medium (Mediatech, Inc., Herndon, VA) supplemented with 10% heat-inactivated fetal bovine serum (American Qualex, San Clemente, CA), 10mM glutamine, 100 U/ml penicillin, and 100 µg/ml streptomycin (Sigma Chemicals, Saint Louis, MO) (complete medium). […] Cell viability was assessed by trypan blue dye exclusion test and the cell number was adjusted to required concentration. Colorimetric MTT assay: Cytotoxic effects of the hypoestoxide compounds of formulas I and II (JO-4A) were determined in vitro by a colorimetric assay (Mosmann, T., J. Immunol. Methods, 65: 55-63, 1983). […] Mixing with a multichannel pipetter dissolved the dark blue crystals and the absorbance was measured at 545-650 nm using an ELISA plate reader. […] The tumors were measured with a microcaliper, and the tumor volume was calculated by the formula: Length x width x height x 0.5236 (Jungwirth, A. et al., Proc. Natl. Acad. Sci. USA, 94:5810-5813, 1997). […]

Data set [2] in a line: Colorimetric MTT cytotoxicity assay, HUVEC. The data set is classed as cell-based. Particulars: human, read-out: IC50 concentration (cytotoxicity). How it is done:
as §1
Background: Formazan colour is commonly taken as a measure of viable cells.

Data set [3] concerns HIV-1 isolate from a patient. As to the kind of experiment: In vitro HIV-1 replication assay in PBMC, p24 antigen EIA. The format is cell-based, Human Immunodeficiency Virus type 1. Particulars: Human immunodeficiency virus 1, 168 h, PHA-activated human PBMC, 7 days. How it is done: In Vitro HIV-1 Replication Assay: A standardized peripheral blood mononuclear cell culture assay for the determination of drug susceptibilities of clinical human HIV-1 isolates was utilized (Japour AJ et al. Antimicro Agents Chemother 1993; 37:1095-1101). Peripheral blood mononuclear cells (2 x 10^6 cells/ml) were stimulated with PHA (5 µg/ml) in complete culture medium at 37°C, in a 5% CO2-95% air-humidified incubator for 72 hours. The 3-day-old PHA-stimulated PBMC was sedimented at 400 g for 10 min at 20-24°C. Supernatant was removed and discarded. The cells were resuspended in complete culture medium supplemented with 3% IL-2. Cell viability was determined with 0.4% trypan blue. Viability was greater than 85%. Cell concentration was adjusted to 4x10^6/ml. Cells were dispensed in 50 µl volumes (2x10^5/well) into 96 well microtiter plates containing 50 µl complete culture medium. HIV-1 infected cultures were initiated with a patient's HIV-1 isolate (50 µl/well) at a multiplicity of infection (MOI) of 0.05 and 0.1 respectively. JO-4A was added to wells in 50 µl volumes at varying concentrations (0.0001 µM - 0.5 µM). The plates were incubated at 37°C and 5% CO2 in humidified chamber for 7 days. On day 4, half of the spent medium (100 µl) was discarded, and 50 µl of fresh complete medium and 50 µl of fresh JO-4A (varying concentrations as above) were added to wells containing spent JO-4A. […]

A short description of data set [4]: Colorimetric MTT cytotoxicity assay, normal cervical ectoepithelial cells. The data set is classed as cell-based. Conditions: human, crec-ec cells.
The subject of data set [5] is renal carcinoma (CAKI-1) cells. As to the kind of experiment: Colorimetric MTT cytotoxicity assay, CAKI-1. The data set is classed as cell-based. Conditions: Homo sapiens; CAKI-1, 72 hours. How it is done:
as §1

As a reminder, the inhibition is the relative decrease from the control value, in per cent. `C=C1C(=O)C[C@H]2C[C@@H]3O[C@@]3(C)CC[C@@H]3O[C@@]3(C)C[C@@H](OC(C)=O)[C@H]1C2(C)C` [JO-4, hypoestoxide]: the inhibition at 3.125 µM with HSV-1 (3.125 µM) came to 53%. Also, testing at 12.5 µM with HSV-1 (12.5 µM) gave an inhibition of 60%. The IC50 in the data set with HSV-1 (read-out: IC50 dose on HSV-1 inhibition) is roughly 3.12 µM.
Consider `C=C1C(=O)CC2CC3OC3(C)CCC3OC3(C)CC(O)C1C2(C)C` (stereo not drawn) [JO-4A], for which the IC50 in data set [1] was in the range of 10 to 12.5 µM; in data set [3], 0.0001 to 0.01 µM; in data set [5], 20 to 40 µM. Further, the CC50 at 72 h in data set [2] is 25 to 50 µM; in data set [4] (normal cervical ectoepithelial cells, 72 hours, read-out: IC50 (cytotoxicity)), greater than 100 µM. For the same compound, in data set [4] (at the IC50 dose for HeLa (between 10 µM and 12.5 µM), read-out: cytotoxic effect), the cytotoxicity was found to be 6%.
